Source: ChEMBL document CHEMBL2440076, “New triarylpyrazoles as broad-spectrum anticancer agents: design, synthesis, and biological evaluation” (Eur J Med Chem, 2013)

Legend:
Format in all cases: functional
HCT-116 = test: Growth inhibition of human HCT116 cells assessed as cell growth at 10^-7 M after 48 hrs by sulforhodamine B assay; settings: HCT-116, 48 h, read-out: Activity
NCI-H460 = test: Growth inhibition of human NCI-H460 cells assessed as cell growth at 10^-7 M after 48 hrs by sulforhodamine B assay; settings: NCI-H460, 48 h, read-out: Activity
NCI-H226 = test: Growth inhibition of human NCI-H226 cells assessed as cell growth at 10^-7 M after 48 hrs by sulforhodamine B assay; settings: NCI-H226, 48 h, read-out: Activity
BT-549 = test: Growth inhibition of human BT549 cells assessed as cell growth at 10^-4 M after 48 hrs by sulforhodamine B assay; settings: BT-549, 48 h, read-out: Activity
UO-31 [1] = test: Growth inhibition of human UO31 cells assessed as cell growth at 10^-4 M after 48 hrs by sulforhodamine B assay; settings: UO-31, 48 h, read-out: Activity
CAKI-1 = test: Growth inhibition of human CAKI-1 cells assessed as cell growth at 10^-4 M after 48 hrs by sulforhodamine B assay; settings: CAKI-1, 48 h, read-out: Activity
UACC-257 [2] = test: Growth inhibition of human UACC257 cells assessed as cell growth at 10^-4 M after 48 hrs by sulforhodamine B assay; settings: UACC-257, 48 h, read-out: Activity
[3] = Growth inhibition of human HCC2998 cells assessed as cell growth at 10^-4 M after 48 hrs by sulforhodamine B assay; settings: HCC 2998, 48 h, read-out: Activity
COLO 205 = test: Growth inhibition of human COLO205 cells assessed as cell growth at 10^-4 M after 48 hrs by sulforhodamine B assay; settings: COLO 205, 48 h, read-out: Activity
OVCAR-5 = test: Growth inhibition of human OVCAR5 cells assessed as cell growth at 10^-8 M after 48 hrs by sulforhodamine B assay; settings: OVCAR-5, 48 h, read-out: Activity
LOX IMVI = test: Growth inhibition of human LOXIMVI cells assessed as cell growth at 10^-8 M after 48 hrs by sulforhodamine B assay; settings: read-out: Activity
SW-620 [4] = test: Growth inhibition of human SW620 cells assessed as cell growth at 10^-8 M after 48 hrs by sulforhodamine B assay; settings: SW-620, 48 h, read-out: Activity
CCRF-CEM = test: Growth inhibition of human CCRF-CEM cells assessed as cell growth at 10^-8 M after 48 hrs by sulforhodamine B assay; settings: read-out: Activity
A549 = test: Growth inhibition of human A549/ATCC cells assessed as cell growth at 10^-4 M after 48 hrs by sulforhodamine B assay; settings: A549, 48 h, read-out: Activity
RPMI-8226 = test: Growth inhibition of human RPMI8226 cells assessed as cell growth at 10^-4 M after 48 hrs by sulforhodamine B assay; settings: RPMI-8226, 48 h, read-out: Activity
MOLT-4 = test: Growth inhibition of human MOLT4 cells assessed as cell growth at 10^-4 M after 48 hrs by sulforhodamine B assay; settings: MOLT-4, 48 h, read-out: Activity
MDA-MB-231 = test: Growth inhibition of human MDA-MB-231 cells assessed as cell growth at 10^-5 M after 48 hrs by sulforhodamine B assay; settings: MDA-MB-231, 48 h, read-out: Activity
TK-10 [5] = test: Growth inhibition of human TK10 cells assessed as cell growth at 10^-5 M after 48 hrs by sulforhodamine B assay; settings: TK-10, 48 h, read-out: Activity
UACC-257 [6] = test: Growth inhibition of human UACC257 cells assessed as cell growth at 10^-5 M after 48 hrs by sulforhodamine B assay; settings: UACC-257, 48 h, read-out: Activity
MDA-MB-435 = test: Growth inhibition of human MDA-MB-435 cells assessed as cell growth at 10^-5 M after 48 hrs by sulforhodamine B assay; settings: MDA-MB-435, 48 h, read-out: Activity
Malme-3M = test: Growth inhibition of human MALME-3M cells assessed as cell growth at 10^-5 M after 48 hrs by sulforhodamine B assay; settings: read-out: Activity
SF-539 = test: Growth inhibition of human SF539 cells assessed as cell growth at 10^-5 M after 48 hrs by sulforhodamine B assay; settings: SF-539, 48 h, read-out: Activity
KM12 = test: Growth inhibition of human KM12 cells assessed as cell growth at 10^-5 M after 48 hrs by sulforhodamine B assay; settings: KM12, 48 h, read-out: Activity
K562 = test: Growth inhibition of human K562 cells assessed as cell growth at 10^-5 M after 48 hrs by sulforhodamine B assay; settings: K562, 48 h, read-out: Activity
T47D = test: Growth inhibition of human T47D cells assessed as cell growth at 10^-6 M after 48 hrs by sulforhodamine B assay; settings: read-out: Activity
SN12C = test: Growth inhibition of human SN12C cells assessed as cell growth at 10^-6 M after 48 hrs by sulforhodamine B assay; settings: read-out: Activity
TK-10 [7] = test: Growth inhibition of human TK10 cells assessed as cell growth at 10^-6 M after 48 hrs by sulforhodamine B assay; settings: TK-10, 48 h, read-out: Activity
UACC-62 [8] = test: Growth inhibition of human UACC62 cells assessed as cell growth at 10^-6 M after 48 hrs by sulforhodamine B assay; settings: UACC-62, 48 h, read-out: Activity
SK-MEL-5 = test: Growth inhibition of human SK-MEL-5 cells assessed as cell growth at 10^-6 M after 48 hrs by sulforhodamine B assay; settings: SK-MEL-5, 48 h, read-out: Activity
SNB-19 = test: Growth inhibition of human SNB19 cells assessed as cell growth at 10^-6 M after 48 hrs by sulforhodamine B assay; settings: SNB-19, 48 h, read-out: Activity
SF-268 = test: Growth inhibition of human SF268 cells assessed as cell growth at 10^-6 M after 48 hrs by sulforhodamine B assay; settings: SF-268, 48 h, read-out: Activity
SW-620 [9] = test: Growth inhibition of human SW620 cells assessed as cell growth at 10^-6 M after 48 hrs by sulforhodamine B assay; settings: SW-620, 48 h, read-out: Activity
UO-31 [10] = test: Growth inhibition of human UO31 cells assessed as cell growth at 10^-7 M after 48 hrs by sulforhodamine B assay; settings: UO-31, 48 h, read-out: Activity
ACHN = test: Growth inhibition of human ACHN cells assessed as cell growth at 10^-7 M after 48 hrs by sulforhodamine B assay; settings: read-out: Activity
SK-OV-3 = test: Growth inhibition of human SKOV3 cells assessed as cell growth at 10^-7 M after 48 hrs by sulforhodamine B assay; settings: SK-OV-3, 48 h, read-out: Activity
UACC-62 [11] = test: Growth inhibition of human UACC62 cells assessed as cell growth at 10^-7 M after 48 hrs by sulforhodamine B assay; settings: UACC-62, 48 h, read-out: Activity
SK-MEL-2 = test: Growth inhibition of human SK-MEL-2 cells assessed as cell growth at 10^-7 M after 48 hrs by sulforhodamine B assay; settings: SK-MEL-2, 48 h, read-out: Activity

SMILES	growth at 0.1 µM (HCT-116) [%]	growth at 0.1 µM (NCI-H460) [%]	growth at 0.1 µM (NCI-H226) [%]	growth at 100 µM (BT-549) [%]	growth at 100 µM (UO-31 [1]) [%]	growth at 100 µM (CAKI-1) [%]	growth at 100 µM (UACC-257 [2]) [%]	growth at 100 µM [3] [%]	growth at 100 µM (COLO 205) [%]	growth at 0.01 µM (OVCAR-5) [%]	growth at 0.01 µM (LOX IMVI) [%]	growth at 0.01 µM (SW-620 [4]) [%]	growth at 0.01 µM (CCRF-CEM) [%]	growth at 100 µM (A549) [%]	growth at 100 µM (RPMI-8226) [%]	growth at 100 µM (MOLT-4) [%]	growth at 10 µM (MDA-MB-231) [%]	growth at 10 µM (TK-10 [5]) [%]	growth at 10 µM (UACC-257 [6]) [%]	growth at 10 µM (MDA-MB-435) [%]	also measured
COc1cc(-c2nn(-c3cccc(NC(=O)c4ccccc4)c3)cc2-c2ccncc2)ccc1Cl	95	99	96	28	24	7	24	-13	-54	95	94	96	97	6	21	33	7	45	29	-48	growth at 10 µM (Malme-3M): 8%; growth at 10 µM (SF-539): -25%; growth at 10 µM (KM12): 10%; growth at 10 µM (K562): 10%; growth at 1 µM (T47D): 58%; growth at 1 µM (SN12C): 64%; growth at 1 µM (TK-10 [7]): 80%; growth at 1 µM (UACC-62 [8]): 41%; growth at 1 µM (SK-MEL-5): 10%; growth at 1 µM (SNB-19): 47%; growth at 1 µM (SF-268): 47%; growth at 1 µM (SW-620 [9]): 35%; growth at 0.1 µM (UO-31 [10]): 81%; growth at 0.1 µM (ACHN): 95%; growth at 0.1 µM (SK-OV-3): 95%; growth at 0.1 µM (UACC-62 [11]): 96%; growth at 0.1 µM (SK-MEL-2): 90%
COc1cc(-c2nn(-c3cccc(NC(=O)c4ccc(N5CCOCC5)c(C(F)(F)F)c4)c3)cc2-c2ccncc2)ccc1Cl	75	88	87	9	-13	-4	-31	-46	-75	95	98	99	94	4	6	2	-30	14	-5	-36	growth at 10 µM (Malme-3M): -14%; growth at 10 µM (SF-539): -54%; growth at 10 µM (KM12): -6%; growth at 10 µM (K562): 2%; growth at 1 µM (T47D): 42%; growth at 1 µM (SN12C): 51%; growth at 1 µM (TK-10 [7]): 58%; growth at 1 µM (UACC-62 [8]): 42%; growth at 1 µM (SK-MEL-5): -11%; growth at 1 µM (SNB-19): 38%; growth at 1 µM (SF-268): 41%; growth at 1 µM (SW-620 [9]): 36%; growth at 0.1 µM (UO-31 [10]): 64%; growth at 0.1 µM (ACHN): 83%; growth at 0.1 µM (SK-OV-3): 80%; growth at 0.1 µM (UACC-62 [11]): 56%; growth at 0.1 µM (SK-MEL-2): 73%
